Literature values in patent publication US10610592B2, “Treatment of multiple sclerosis” (priority 2014, dated 2020).

Experiments:
[1] = very prolonged elimination
[2] = patients treated with alemtuzumab

Compound | elimination time [1] | patients who develop thyroid autoimmune diseases, and hematologic and renal complications [2]
C/C(O)=C(\C#N)C(=O)Nc1ccc(C(F)(F)F)cc1 [Teriflunomide] | up to 2 years | –
Alemtuzumab: monoclonal antibody that binds to proteins (CD-52) on mature lymphocytes | – | Approximately 40%
